Experimental data taken from PubChem BioAssay (NCI).
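The compound was tested at five concentrations on cells cultured in 96-well plates, with a 48-hour exposure period. TGI: concentration producing complete growth inhibition.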

How the values were obtained:
Assay in all cases: NCI tumour cell line growth inhibition, 48 h
[1] = test system: M14 melanoma
[2] = test system: SN12C renal
[3] = test system: OVCAR-5 ovarian
[4] = test system: HOP-92 NSCLC
[5] = test system: NCI-H226 lung
[6] = test system: RXF 393 renal
[7] = test system: HT29 colon
[8] = test system: TK-10 renal
[9] = test system: SNB-75 CNS
[10] = test system: HS 578T breast
[11] = test system: UACC-62 melanoma
[12] = test system: LOX IMVI melanoma
[13] = test system: SK-MEL-2 melanoma
[14] = test system: HCC-2998 colon
[15] = test system: MCF7 breast
[16] = test system: IGROV1 ovarian
[17] = test system: OVCAR-4 ovarian
[18] = test system: SF-295 CNS
[19] = test system: KM12 colon
[20] = test system: MDA-MB-435
[21] = test system: SNB-19 CNS
[22] = test system: BT-549 breast
[23] = test system: MDA-N
[24] = test system: UO-31 renal
[25] = test system: MOLT-4 leukemia
[26] = test system: ACHN renal
[27] = test system: OVCAR-8 ovarian
[28] = test system: NCI-H23 lung
[29] = test system: SR leukemia
[30] = test system: MALME-3M melanoma
[31] = test system: DU-145 prostate
[32] = test system: SW-620 colon
[33] = test system: RPMI-8226 leukemia
[34] = test system: SK-MEL-5 melanoma
[35] = test system: NCI-H522 lung
[36] = test system: OVCAR-3 ovarian
[37] = test system: CCRF-CEM leukemia
[38] = test system: U251 CNS
[39] = test system: T-47D breast
[40] = test system: 786-0 renal
[41] = test system: K-562 leukemia
[42] = test system: UACC-257 melanoma
[43] = test system: HL-60(TB) leukemia
[44] = test system: HCT-15 colon
[45] = test system: SK-MEL-28 melanoma
[46] = test system: A549 NSCLC
[47] = test system: SF-268 CNS
[48] = test system: COLO 205 colon
[49] = test system: MDA-MB-231 breast
[50] = test system: NCI-H460 lung
[51] = test system: A498 renal
[52] = test system: HCT-116 colon
[53] = test system: NCI/ADR-RES ovarian
[54] = test system: CAKI-1 renal
[55] = test system: HOP-62 NSCLC
[56] = test system: SF-539 CNS
[57] = test system: PC-3 prostate
[58] = test system: SK-OV-3 ovarian
[59] = test system: EKVX NSCLC

CN(C(=O)c1ccc(Cl)cc1)C(=S)N1CCN(c2ccccc2)CC1
TGI [1]: > 100 µM | TGI [2]: > 100 µM | TGI [3]: > 100 µM | TGI [4]: > 100 µM | TGI [5]: > 100 µM | TGI [6]: > 100 µM | TGI [7]: > 100 µM | TGI [8]: > 100 µM | TGI [9]: > 100 µM | TGI [10]: 95.6 µM | TGI [11]: > 100 µM | TGI [12]: > 100 µM | TGI [13]: > 100 µM | TGI [14]: > 100 µM | TGI [15]: > 100 µM | TGI [16]: > 100 µM | TGI [17]: > 100 µM | TGI [18]: > 100 µM | TGI [19]: > 100 µM | TGI [20]: > 100 µM | TGI [21]: > 100 µM | TGI [22]: > 100 µM | TGI [23]: > 100 µM | TGI [24]: > 100 µM | TGI [25]: > 100 µM | TGI [26]: > 100 µM | TGI [27]: > 100 µM | TGI [28]: > 100 µM | TGI [29]: > 100 µM | TGI [30]: > 100 µM | TGI [31]: > 100 µM | TGI [32]: > 100 µM | TGI [33]: > 100 µM | TGI [34]: > 100 µM | TGI [35]: > 100 µM | TGI [36]: > 100 µM | TGI [37]: > 100 µM | TGI [38]: > 100 µM | TGI [39]: > 100 µM | TGI [40]: > 100 µM | TGI [41]: > 100 µM | TGI [42]: > 100 µM | TGI [43]: > 100 µM | TGI [44]: > 100 µM | TGI [45]: > 100 µM | TGI [46]: > 100 µM | TGI [47]: > 100 µM | TGI [48]: > 100 µM | TGI [49]: > 100 µM | TGI [50]: > 100 µM

O=C(NNC(=O)c1c(Cl)c(Cl)c(Cl)c(Cl)c1-c1nc2ccccc2[nH]1)c1ccc(Cl)cc1
TGI [1]: > 100 µM | TGI [2]: > 100 µM | TGI [3]: > 100 µM | TGI [4]: 84.7 µM | TGI [5]: > 100 µM | TGI [6]: > 100 µM | TGI [7]: > 100 µM | TGI [51]: > 100 µM | TGI [9]: > 100 µM | TGI [11]: > 100 µM | TGI [52]: > 100 µM | TGI [53]: > 100 µM | TGI [12]: > 100 µM | TGI [13]: > 100 µM | TGI [15]: > 100 µM | TGI [16]: > 100 µM | TGI [17]: > 100 µM | TGI [18]: > 100 µM | TGI [19]: > 100 µM | TGI [54]: > 100 µM | TGI [20]: 69.8 µM | TGI [21]: > 100 µM | TGI [22]: > 100 µM | TGI [23]: 53.4 µM | TGI [24]: > 100 µM | TGI [25]: > 100 µM | TGI [26]: > 100 µM | TGI [27]: > 100 µM | TGI [28]: > 100 µM | TGI [29]: > 100 µM | TGI [30]: > 100 µM | TGI [31]: > 100 µM | TGI [32]: > 100 µM | TGI [33]: 98.5 µM | TGI [34]: > 100 µM | TGI [55]: > 100 µM | TGI [56]: > 100 µM | TGI [35]: > 100 µM | TGI [36]: > 100 µM | TGI [57]: > 100 µM | TGI [37]: 67.9 µM | TGI [39]: 93.5 µM | TGI [40]: > 100 µM | TGI [41]: > 100 µM | TGI [43]: > 100 µM | TGI [44]: > 100 µM | TGI [45]: > 100 µM | TGI [58]: > 100 µM | TGI [46]: > 100 µM | TGI [47]: > 100 µM | TGI [48]: > 100 µM | TGI [59]: > 100 µM

CC1(C)CN=C(Nc2ccc(F)c(Cl)c2)S1
TGI [1]: > 100 µM | TGI [2]: > 100 µM | TGI [3]: > 100 µM | TGI [4]: > 100 µM | TGI [5]: > 100 µM | TGI [6]: > 100 µM | TGI [7]: > 100 µM | TGI [8]: > 100 µM | TGI [9]: > 100 µM | TGI [10]: > 100 µM | TGI [11]: > 100 µM | TGI [52]: > 100 µM | TGI [53]: > 100 µM | TGI [12]: > 100 µM | TGI [13]: > 100 µM | TGI [14]: > 100 µM | TGI [15]: > 100 µM | TGI [16]: > 100 µM | TGI [17]: > 100 µM | TGI [18]: > 100 µM | TGI [19]: > 100 µM | TGI [54]: > 100 µM | TGI [20]: > 100 µM | TGI [21]: > 100 µM | TGI [22]: > 100 µM | TGI [23]: > 100 µM | TGI [24]: > 100 µM | TGI [25]: > 100 µM | TGI [26]: > 100 µM | TGI [27]: > 100 µM | TGI [28]: > 100 µM | TGI [29]: > 100 µM | TGI [30]: > 100 µM | TGI [31]: > 100 µM | TGI [32]: > 100 µM | TGI [33]: > 100 µM | TGI [34]: > 100 µM | TGI [55]: > 100 µM | TGI [56]: > 100 µM | TGI [35]: > 100 µM | TGI [36]: > 100 µM | TGI [57]: > 100 µM | TGI [37]: > 100 µM | TGI [38]: > 100 µM | TGI [39]: > 100 µM | TGI [40]: > 100 µM | TGI [41]: > 100 µM | TGI [42]: > 100 µM | TGI [43]: > 100 µM | TGI [44]: > 100 µM | TGI [45]: > 100 µM | TGI [58]: > 100 µM | TGI [46]: > 100 µM | TGI [47]: > 100 µM | TGI [48]: > 100 µM | TGI [59]: > 100 µM

C=CCOC1OC(CS(=O)(=O)O)C(OC(C)=O)C(OC(C)=O)C1OC(C)=O (centres undefined)
TGI [1]: > 100 µM | TGI [2]: > 100 µM | TGI [3]: > 100 µM | TGI [4]: > 100 µM | TGI [5]: > 100 µM | TGI [6]: > 100 µM | TGI [7]: > 100 µM | TGI [51]: > 100 µM | TGI [8]: > 100 µM | TGI [9]: > 100 µM | TGI [10]: > 100 µM | TGI [11]: > 100 µM | TGI [52]: > 100 µM | TGI [53]: > 100 µM | TGI [12]: > 100 µM | TGI [13]: > 100 µM | TGI [14]: > 100 µM | TGI [15]: > 100 µM | TGI [16]: > 100 µM | TGI [17]: > 100 µM | TGI [18]: > 100 µM | TGI [19]: > 100 µM | TGI [54]: > 100 µM | TGI [20]: > 100 µM | TGI [21]: > 100 µM | TGI [22]: > 100 µM | TGI [23]: > 100 µM | TGI [24]: > 100 µM | TGI [25]: > 100 µM | TGI [27]: > 100 µM | TGI [28]: > 100 µM | TGI [29]: > 100 µM | TGI [30]: > 100 µM | TGI [31]: > 100 µM | TGI [32]: > 100 µM | TGI [33]: > 100 µM | TGI [34]: > 100 µM | TGI [55]: > 100 µM | TGI [36]: > 100 µM | TGI [57]: > 100 µM | TGI [37]: > 100 µM | TGI [38]: > 100 µM | TGI [39]: > 100 µM | TGI [41]: > 100 µM | TGI [42]: > 100 µM | TGI [43]: > 100 µM | TGI [44]: > 100 µM | TGI [45]: > 100 µM | TGI [58]: > 100 µM | TGI [48]: > 100 µM | TGI [50]: > 100 µM
